Paper PMC7385619, “A triple action CDK4/6-PI3K-BET inhibitor with augmented cancer cell cytotoxicity” (Cell Discovery, 2020)
Like-named read-outs stand apart in the source and are kept apart here.

Legend:
Test in all cases: KINOMEscan assay (Eurofins DiscoverX)
Type in all cases: binding
[1] = target: T1, kinome (kinase panel) (Homo sapiens, UniProt Q32MK0); conditions: MLCK (Entrez MYLK3); 1000 nM; read-out: Percent Control
T1 construct: purchased Eurofins DiscoverX

[2] = target: T2, kinome (kinase panel) (Homo sapiens, UniProt P51812); conditions: 1000 nM, read-out: Percent Control
T2 construct: purchased Eurofins DiscoverX

[3] = target: T3, kinome (kinase panel) (Homo sapiens, UniProt P36888); conditions: 1000 nM, read-out: Percent Control
T3 construct: purchased Eurofins DiscoverX

[4] = target: T4, kinome (kinase panel) (Homo sapiens, UniProt P15056, V600E); conditions: […]; 1000 nM; read-out: Percent Control
T4 construct: purchased Eurofins DiscoverX

[5] = target: T5, kinome (kinase panel) (Homo sapiens, UniProt P10721, V559D/V654A); conditions: read-out: Percent Control
T5 construct: purchased Eurofins DiscoverX

[6] = target: T6, kinome (kinase panel) (Homo sapiens, UniProt P50750); conditions: CDK9; 1000 nM; read-out: Percent Control
T6 construct: purchased Eurofins DiscoverX

[7] = target: T7, kinome (kinase panel) (Homo sapiens, UniProt Q9BRS2); conditions: RIOK1; 1000 nM; read-out: Percent Control
T7 construct: purchased Eurofins DiscoverX

[8] = target: T8, kinome (kinase panel) (Homo sapiens, UniProt P10721, D816V); conditions: […]; 1000 nM; read-out: Percent Control
T8 construct: purchased Eurofins DiscoverX

[9] = target: T9, kinome (kinase panel) (Homo sapiens, UniProt Q8N752); conditions: CSNK1A1L; 1000 nM; read-out: Percent Control
T9 construct: purchased Eurofins DiscoverX

[10] = target: T10, kinome (kinase panel) (Homo sapiens, UniProt P68400); conditions: CSNK2A1; 1000 nM; read-out: Percent Control
T10 construct: purchased Eurofins DiscoverX

[11] = target: T11, kinome (kinase panel) (Homo sapiens, UniProt P35916); conditions: FLT4; 1000 nM; read-out: Percent Control
T11 construct: purchased Eurofins DiscoverX

[12] = target: T12, kinome (kinase panel) (Homo sapiens, UniProt Q13131); conditions: AMPK-alpha1 (Entrez PRKAA1); 1000 nM; read-out: Percent Control
T12 construct: purchased Eurofins DiscoverX

[13] = target: T13, kinome (kinase panel) (Homo sapiens, UniProt P19784); conditions: CSNK2A2; 1000 nM; read-out: Percent Control
T13 construct: purchased Eurofins DiscoverX

[14] = target: T14, kinome (kinase panel) (Homo sapiens, UniProt Q02750); conditions: MEK1 (Entrez MAP2K1); 1000 nM; read-out: Percent Control
T14 construct: purchased Eurofins DiscoverX

[15] = target: T15, kinome (kinase panel) (Homo sapiens, UniProt P43403); conditions: ZAP70; 1000 nM; read-out: Percent Control
T15 construct: purchased Eurofins DiscoverX

[16] = target: T16, kinome (kinase panel) (Homo sapiens, UniProt P07947); conditions: YES (YES1); 1000 nM; read-out: Percent Control
T16 construct: purchased Eurofins DiscoverX

[17] = target: T17, kinome (kinase panel) (Homo sapiens, UniProt Q96L34); conditions: MARK4; 1000 nM; read-out: Percent Control
T17 construct: purchased Eurofins DiscoverX

[18] = target: T18, kinome (kinase panel) (Homo sapiens, UniProt P06239); conditions: LCK; 1000 nM; read-out: Percent Control
T18 construct: purchased Eurofins DiscoverX

[19] = target: T19, kinome (kinase panel) (Homo sapiens, UniProt Q99755); conditions: PIP5K1A; 1000 nM; read-out: Percent Control
T19 construct: purchased Eurofins DiscoverX

[20] = target: T20, kinome (kinase panel) (Homo sapiens, UniProt Q13976); conditions: PRKG1; 1000 nM; read-out: Percent Control
T20 construct: purchased Eurofins DiscoverX

[21] = target: T21, kinome (kinase panel) (Homo sapiens, UniProt P53671); conditions: LIMK2; 1000 nM; read-out: Percent Control
T21 construct: purchased Eurofins DiscoverX

[22] = target: T22, kinome (kinase panel) (Homo sapiens, UniProt P27361); conditions: ERK1 (Entrez MAPK3); 1000 nM; read-out: Percent Control
T22 construct: purchased Eurofins DiscoverX

[23] = target: T23, kinome (kinase panel) (Homo sapiens, UniProt Q9P289); conditions: MST4; 1000 nM; read-out: Percent Control
T23 construct: purchased Eurofins DiscoverX

[24] = target: T24, kinome (kinase panel) (Homo sapiens, UniProt Q9HCP0); conditions: CSNK1G1; 1000 nM; read-out: Percent Control
T24 construct: purchased Eurofins DiscoverX

[25] = target: T25, kinome (kinase panel) (Homo sapiens, UniProt Q04912); conditions: MST1R; 1000 nM; read-out: Percent Control
T25 construct: purchased Eurofins DiscoverX

[26] = target: T26, kinome (kinase panel) (Homo sapiens, UniProt Q6P3R8); conditions: NEK5; 1000 nM; read-out: Percent Control
T26 construct: purchased Eurofins DiscoverX

[27] = target: T27, kinome (kinase panel) (Plasmodium falciparum, UniProt P61075); conditions: PFPK5(P.falciparum) (Entrez MAL13P1.279); 1000 nM; read-out: Percent Control
T27 construct: purchased Eurofins DiscoverX

[28] = target: T28, kinome (kinase panel) (Homo sapiens, UniProt P42685); conditions: FRK; 1000 nM; read-out: Percent Control
T28 construct: purchased Eurofins DiscoverX

[29] = target: T29, kinome (kinase panel) (Homo sapiens, UniProt Q96D53); conditions: ADCK4; 1000 nM; read-out: Percent Control
T29 construct: purchased Eurofins DiscoverX

[30] = target: T30, kinome (kinase panel) (Homo sapiens, UniProt Q08881); conditions: ITK; 1000 nM; read-out: Percent Control
T30 construct: purchased Eurofins DiscoverX

[31] = target: T31, kinome (kinase panel) (Homo sapiens, UniProt O95835); conditions: LATS1; 1000 nM; read-out: Percent Control
T31 construct: purchased Eurofins DiscoverX

[32] = target: T32, kinome (kinase panel) (Homo sapiens, UniProt Q9UBE8); conditions: NLK; 1000 nM; read-out: Percent Control
T32 construct: purchased Eurofins DiscoverX

T2 sequence (P51812 whole entry): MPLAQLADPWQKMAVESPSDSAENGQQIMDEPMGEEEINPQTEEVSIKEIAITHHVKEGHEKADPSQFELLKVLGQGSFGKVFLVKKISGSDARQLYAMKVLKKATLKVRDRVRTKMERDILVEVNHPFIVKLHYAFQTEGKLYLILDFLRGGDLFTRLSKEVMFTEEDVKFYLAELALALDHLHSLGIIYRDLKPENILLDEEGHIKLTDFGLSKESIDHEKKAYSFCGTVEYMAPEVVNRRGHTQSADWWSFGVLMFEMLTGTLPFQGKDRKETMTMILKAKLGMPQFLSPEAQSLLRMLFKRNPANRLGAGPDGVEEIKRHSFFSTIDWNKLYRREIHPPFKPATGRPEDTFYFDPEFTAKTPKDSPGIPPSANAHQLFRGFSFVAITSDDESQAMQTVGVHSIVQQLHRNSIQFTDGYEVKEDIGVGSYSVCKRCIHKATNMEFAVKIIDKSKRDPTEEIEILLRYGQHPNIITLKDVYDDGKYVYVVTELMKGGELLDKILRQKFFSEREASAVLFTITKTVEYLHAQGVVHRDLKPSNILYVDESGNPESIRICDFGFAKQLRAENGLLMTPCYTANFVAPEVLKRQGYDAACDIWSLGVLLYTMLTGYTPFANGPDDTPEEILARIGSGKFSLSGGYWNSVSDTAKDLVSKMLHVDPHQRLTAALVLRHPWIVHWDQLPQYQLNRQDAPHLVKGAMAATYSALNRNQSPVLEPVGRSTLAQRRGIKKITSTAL
T3 sequence (P36888 27-993): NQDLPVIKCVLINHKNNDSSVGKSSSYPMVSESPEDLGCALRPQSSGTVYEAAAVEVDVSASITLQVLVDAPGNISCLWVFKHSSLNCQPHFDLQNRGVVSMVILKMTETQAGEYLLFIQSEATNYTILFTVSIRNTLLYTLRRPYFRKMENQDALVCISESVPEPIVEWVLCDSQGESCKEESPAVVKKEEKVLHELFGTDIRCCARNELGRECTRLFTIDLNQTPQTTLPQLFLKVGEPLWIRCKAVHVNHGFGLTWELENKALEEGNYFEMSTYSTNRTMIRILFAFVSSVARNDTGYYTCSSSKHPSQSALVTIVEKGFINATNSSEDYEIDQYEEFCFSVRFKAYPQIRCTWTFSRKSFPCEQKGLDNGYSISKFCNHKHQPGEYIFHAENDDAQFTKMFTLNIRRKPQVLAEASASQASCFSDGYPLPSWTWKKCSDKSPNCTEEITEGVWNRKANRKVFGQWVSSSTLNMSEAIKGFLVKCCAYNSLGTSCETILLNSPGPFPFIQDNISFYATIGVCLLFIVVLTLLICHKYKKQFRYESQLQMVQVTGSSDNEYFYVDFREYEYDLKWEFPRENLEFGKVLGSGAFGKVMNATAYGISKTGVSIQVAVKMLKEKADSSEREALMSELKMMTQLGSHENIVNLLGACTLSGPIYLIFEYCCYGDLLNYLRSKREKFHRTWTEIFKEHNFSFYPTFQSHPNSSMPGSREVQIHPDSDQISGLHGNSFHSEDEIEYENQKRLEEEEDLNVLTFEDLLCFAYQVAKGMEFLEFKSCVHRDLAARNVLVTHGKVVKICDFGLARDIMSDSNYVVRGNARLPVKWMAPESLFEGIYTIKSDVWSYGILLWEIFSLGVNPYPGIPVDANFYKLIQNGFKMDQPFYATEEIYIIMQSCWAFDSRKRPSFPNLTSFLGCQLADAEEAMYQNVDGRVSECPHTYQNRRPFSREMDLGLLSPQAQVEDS
T15 sequence (P43403 whole entry): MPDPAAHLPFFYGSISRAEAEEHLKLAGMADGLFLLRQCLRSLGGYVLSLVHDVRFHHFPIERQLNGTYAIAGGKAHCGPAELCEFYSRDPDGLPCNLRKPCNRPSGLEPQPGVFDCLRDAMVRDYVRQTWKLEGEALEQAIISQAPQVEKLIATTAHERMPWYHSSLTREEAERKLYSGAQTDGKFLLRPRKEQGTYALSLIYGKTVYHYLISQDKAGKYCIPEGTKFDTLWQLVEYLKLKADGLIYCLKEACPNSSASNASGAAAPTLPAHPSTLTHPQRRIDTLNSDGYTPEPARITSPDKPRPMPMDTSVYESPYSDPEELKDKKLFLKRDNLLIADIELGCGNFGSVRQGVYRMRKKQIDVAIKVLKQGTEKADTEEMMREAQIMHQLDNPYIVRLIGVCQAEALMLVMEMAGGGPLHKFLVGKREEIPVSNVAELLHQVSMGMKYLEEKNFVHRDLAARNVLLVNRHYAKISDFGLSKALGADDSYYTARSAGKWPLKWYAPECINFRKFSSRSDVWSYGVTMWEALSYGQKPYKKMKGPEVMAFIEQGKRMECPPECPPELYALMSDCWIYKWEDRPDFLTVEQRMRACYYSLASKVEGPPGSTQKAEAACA
T19 sequence (Q99755 whole entry): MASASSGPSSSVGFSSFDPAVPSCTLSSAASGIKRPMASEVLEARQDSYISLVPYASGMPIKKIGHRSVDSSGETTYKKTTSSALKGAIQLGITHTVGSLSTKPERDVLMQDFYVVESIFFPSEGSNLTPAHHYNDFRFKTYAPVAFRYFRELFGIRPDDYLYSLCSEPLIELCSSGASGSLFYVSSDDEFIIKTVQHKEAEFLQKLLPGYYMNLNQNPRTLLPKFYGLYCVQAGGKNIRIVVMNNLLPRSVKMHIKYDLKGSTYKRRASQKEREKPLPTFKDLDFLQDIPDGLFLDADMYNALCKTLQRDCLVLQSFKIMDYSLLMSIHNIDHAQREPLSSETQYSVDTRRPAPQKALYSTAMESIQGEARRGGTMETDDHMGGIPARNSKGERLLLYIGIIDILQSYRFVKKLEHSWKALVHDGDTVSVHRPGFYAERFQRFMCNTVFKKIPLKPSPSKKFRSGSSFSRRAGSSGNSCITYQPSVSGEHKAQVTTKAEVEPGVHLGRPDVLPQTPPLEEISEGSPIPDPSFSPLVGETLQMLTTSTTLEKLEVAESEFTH
T29 sequence (Q96D53 whole entry): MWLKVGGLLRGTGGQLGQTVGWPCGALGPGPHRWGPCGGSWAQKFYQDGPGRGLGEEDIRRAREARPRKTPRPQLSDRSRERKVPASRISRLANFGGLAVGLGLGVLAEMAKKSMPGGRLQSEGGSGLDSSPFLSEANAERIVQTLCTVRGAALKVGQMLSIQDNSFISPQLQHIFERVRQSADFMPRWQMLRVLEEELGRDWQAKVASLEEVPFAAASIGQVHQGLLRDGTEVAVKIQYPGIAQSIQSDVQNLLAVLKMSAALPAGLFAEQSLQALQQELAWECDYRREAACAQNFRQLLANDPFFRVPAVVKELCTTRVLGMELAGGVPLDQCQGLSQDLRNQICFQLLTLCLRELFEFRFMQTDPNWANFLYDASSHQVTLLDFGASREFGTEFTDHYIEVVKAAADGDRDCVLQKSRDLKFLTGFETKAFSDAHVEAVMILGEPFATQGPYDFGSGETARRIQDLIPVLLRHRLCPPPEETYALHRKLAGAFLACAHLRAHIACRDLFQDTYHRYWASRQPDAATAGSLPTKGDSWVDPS
T17 sequence (Q96L34 whole entry): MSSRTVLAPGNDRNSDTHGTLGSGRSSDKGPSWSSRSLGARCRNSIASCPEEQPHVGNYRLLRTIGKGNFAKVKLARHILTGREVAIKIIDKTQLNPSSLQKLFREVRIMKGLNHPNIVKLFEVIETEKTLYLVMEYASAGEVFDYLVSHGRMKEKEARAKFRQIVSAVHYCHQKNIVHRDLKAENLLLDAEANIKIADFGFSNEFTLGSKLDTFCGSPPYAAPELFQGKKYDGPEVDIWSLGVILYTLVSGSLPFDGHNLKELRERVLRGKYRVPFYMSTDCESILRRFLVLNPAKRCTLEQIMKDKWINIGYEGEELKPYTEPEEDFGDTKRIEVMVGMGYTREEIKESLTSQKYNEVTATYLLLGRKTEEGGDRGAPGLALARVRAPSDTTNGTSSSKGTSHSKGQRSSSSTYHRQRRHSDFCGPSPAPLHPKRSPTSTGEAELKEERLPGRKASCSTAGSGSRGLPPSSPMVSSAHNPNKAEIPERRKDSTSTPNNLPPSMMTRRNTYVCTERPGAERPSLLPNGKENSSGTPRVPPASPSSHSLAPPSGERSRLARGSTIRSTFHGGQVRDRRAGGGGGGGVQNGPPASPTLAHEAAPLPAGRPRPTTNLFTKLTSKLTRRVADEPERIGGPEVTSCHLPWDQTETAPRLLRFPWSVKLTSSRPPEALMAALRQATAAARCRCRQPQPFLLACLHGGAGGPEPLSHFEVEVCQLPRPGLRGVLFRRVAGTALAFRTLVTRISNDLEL
T30 sequence (Q08881 whole entry): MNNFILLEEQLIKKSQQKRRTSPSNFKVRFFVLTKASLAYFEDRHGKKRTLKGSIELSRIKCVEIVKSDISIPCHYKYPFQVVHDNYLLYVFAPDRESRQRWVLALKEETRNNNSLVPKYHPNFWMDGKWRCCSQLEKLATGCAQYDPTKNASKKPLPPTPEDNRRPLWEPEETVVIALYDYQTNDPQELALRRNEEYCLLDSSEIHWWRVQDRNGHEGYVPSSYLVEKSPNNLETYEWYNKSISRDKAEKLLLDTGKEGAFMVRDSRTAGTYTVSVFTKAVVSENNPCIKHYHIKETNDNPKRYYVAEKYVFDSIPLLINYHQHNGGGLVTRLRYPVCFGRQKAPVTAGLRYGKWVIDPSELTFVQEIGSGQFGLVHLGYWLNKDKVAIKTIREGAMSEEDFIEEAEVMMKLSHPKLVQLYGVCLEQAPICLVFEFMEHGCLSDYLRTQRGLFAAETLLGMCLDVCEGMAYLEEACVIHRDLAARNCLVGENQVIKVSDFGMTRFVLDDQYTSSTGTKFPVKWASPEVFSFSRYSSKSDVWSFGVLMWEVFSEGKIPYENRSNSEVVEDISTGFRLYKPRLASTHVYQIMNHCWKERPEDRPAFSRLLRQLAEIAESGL

How did the remaining binding at 1 µM [1] turn out when `CN(C)C(=O)c1cc2cnc(Nc3ccc(-c4csc5c(=O)cc(N6CCOCC6)oc45)cc3)nc2n1C1CCCC1` [SRX3177] was run?
Its remaining binding at 1 µM is 100%.

What about the remaining binding at 1 µM ([2]; RSK2(Kin.Dom.1-N-terminal) (RPS6KA3)) of the same compound?
The remaining binding at 1 µM was 80%.

What about the remaining binding at 1 µM ([2]; RSK2(Kin.Dom.2-C-terminal) (RPS6KA3)) of the same compound?
Its remaining binding at 1 µM is 100%.

And the remaining binding at 1 µM ([3]; FLT3-autoinhibited)?
Its remaining binding at 1 µM is 63%.

What about the remaining binding at 1 µM ([3]; FLT3) of the same compound?
Its remaining binding at 1 µM is 26%.

And the remaining binding at 1 µM [4]?
The remaining binding at 1 µM was 64%.

And the remaining binding at 1 µM [5]?
The remaining binding at 1 µM was 100%.

What about the remaining binding at 1 µM [6] of the same compound?
Its remaining binding at 1 µM is 2.4%.

What about the remaining binding at 1 µM [7] of the same compound?
The remaining binding at 1 µM was 18%.

And the remaining binding at 1 µM [8]?
Its remaining binding at 1 µM is 23%.

What about the remaining binding at 1 µM [9] of the same compound?
The remaining binding at 1 µM was 100%.

What about the remaining binding at 1 µM [10] of the same compound?
Its remaining binding at 1 µM is 4.8%.

What about the remaining binding at 1 µM [11] of the same compound?
Its remaining binding at 1 µM is 88%.

What about the remaining binding at 1 µM [12] of the same compound?
The remaining binding at 1 µM was 100%.

And the remaining binding at 1 µM [13]?
Its remaining binding at 1 µM is 5.7%.

What about the remaining binding at 1 µM [14] of the same compound?
Its remaining binding at 1 µM is 68%.

And the remaining binding at 1 µM [15]?
Its remaining binding at 1 µM is 100%.

What about the remaining binding at 1 µM [16] of the same compound?
The remaining binding at 1 µM was 93%.

And the remaining binding at 1 µM [17]?
Its remaining binding at 1 µM is 100%.

And the remaining binding at 1 µM [18]?
Its remaining binding at 1 µM is 79%.

What about the remaining binding at 1 µM [19] of the same compound?
Its remaining binding at 1 µM is 21%.

And the remaining binding at 1 µM [20]?
The remaining binding at 1 µM was 100%.

What about the remaining binding at 1 µM [21] of the same compound?
Its remaining binding at 1 µM is 92%.

What about the remaining binding at 1 µM [22] of the same compound?
The remaining binding at 1 µM was 100%.

And the remaining binding at 1 µM [23]?
Its remaining binding at 1 µM is 41%.

What about the remaining binding at 1 µM [24] of the same compound?
The remaining binding at 1 µM was 82%.

What about the remaining binding at 1 µM [25] of the same compound?
The remaining binding at 1 µM was 77%.

What about the remaining binding at 1 µM [26] of the same compound?
Its remaining binding at 1 µM is 93%.

What about the remaining binding at 1 µM [27] of the same compound?
Its remaining binding at 1 µM is 96%.

And the remaining binding at 1 µM [28]?
Its remaining binding at 1 µM is 100%.

What about the remaining binding at 1 µM [29] of the same compound?
Its remaining binding at 1 µM is 43%.

What about the remaining binding at 1 µM [30] of the same compound?
Its remaining binding at 1 µM is 90%.

And the remaining binding at 1 µM [31]?
The remaining binding at 1 µM was 91%.

What about the remaining binding at 1 µM [32] of the same compound?
The remaining binding at 1 µM was 81%.
